Columns and labels:
[1] = test system: MDA-MB-231 breast cancer cells; settings: high PPARγ expressing cells, 24 hours
Method: (§1) To detect breast cancer cell death via cell viability assay, the mitochondrial activity, as an index of cell viability, was measured using the MTT method (Mosmann, T. J Immunol Methods, 1983; 65: 55-63). Briefly, cells were treated in triplicates in 96-well plate. After completion of the experimental period, 20 μl of MTT reagent (5 mg/ml) was added per well of culture (containing 100 μl treatment media). The reaction was allowed to proceed for 4 to 6 h at 37° C. SDS (10%) was then added (200 μl/well) overnight and the absorption at 595 nm measured.

[2] = test system: SHEP1 and SHSY5Y neuroblastoma cells; settings: 24 hours
Method: as §1

SHEP1 cells = settings: mPPARg PCMX versus empty vector, 0 to 5 uM
Method: as §1

T47D breast cancer cells = settings: low PPARγ expressing cells, 24 hours
Method: as §1

[3] = target: T1, phosphorylation-defective mutant of PPARγ (GFP-PPARg S82A) (Mus musculus, UniProt P37238, S112A); assay: 3×PPRE luciferase reporter with phosphorylation-defective mutant PPARγ; assay type: cell-based; settings: SHSY5Y cells, 10 uM, 18 hours
T1 construct: expressed in transfected cells; host or cells: SHSY5Y neuroblastoma cells
T1 sequence (P37238 1-475 isoform P37238-2 S82A): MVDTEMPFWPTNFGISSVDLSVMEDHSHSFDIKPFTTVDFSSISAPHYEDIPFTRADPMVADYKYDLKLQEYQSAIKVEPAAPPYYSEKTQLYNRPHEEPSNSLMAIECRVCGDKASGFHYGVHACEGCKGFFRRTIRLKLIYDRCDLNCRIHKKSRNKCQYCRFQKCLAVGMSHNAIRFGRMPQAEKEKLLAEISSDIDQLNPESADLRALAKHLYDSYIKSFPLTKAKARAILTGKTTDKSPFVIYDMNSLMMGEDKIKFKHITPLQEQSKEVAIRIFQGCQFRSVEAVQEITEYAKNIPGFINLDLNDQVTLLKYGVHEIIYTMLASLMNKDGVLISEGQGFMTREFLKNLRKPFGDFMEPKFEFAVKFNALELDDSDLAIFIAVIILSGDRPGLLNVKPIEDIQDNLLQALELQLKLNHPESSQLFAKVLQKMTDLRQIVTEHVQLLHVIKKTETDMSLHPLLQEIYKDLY
Method: SHSY5Y neuroblastoma cells were transiently co-transfected with either a plasmid encoding wild type PPARγ or a phosphorylation-defective mutant of PPARγ (GFP-PPARg S82A), 3×PPRE luciferase plasmid and plasmid encoding renilla for transfection efficiency. Forty eight hours following transfection, cells were exposed to 10 uM of C19H24N3O5S5Pr for 18 hours.

PPARγ = settings: SHEP1 cells, 0 to 5 uM, 18 hours
Method: To determine if C19H24N3O5S5Pr binds to PPARγ, neuroblastoma SHEP1 cells were transiently co-transfected with either empty vector or a DNA-binding mutant of PPARγ, 3×PPPRE luciferase plasmid and renilla plasmid for transfection efficiency. Forty eight hours following transfection, the cells were exposed to increased concentration (0 to 5 uM) of C19H24N3O5S5Pr for 18 hours. PPARγ activity was calculated as luciferase RLU/renilla/μg total protein.

PTEN, RhoB, MnSOD = settings: HCT-116 tumors, 100 μg or 200 μg per mouse, 21 days of treatment
Method: HCT-116 colorectal tumor cells were grafted onto nude mice. Tumor-bearing mice were then treated with solvent control or different concentrations of (100 μg, 200 μg) C19H24N3O5S5Pr. After 21 days of treatment, the mice were sacrificed, after which tumors were harvested and proteins extracted for Western Blot analysis.

PTEN and MnSOD mRNA = settings: SHEP-1 cells, 10 uM, 4 hr, 8 hr and 18 h
Method: This example illustrates the effect of C19H24N3O5S5Pr on the mRNA levels of PTEN and MnSOD in SHEP-1 cancer cells. mRNA levels of PTEN and MnSOD were assayed by real time PCR after treatment with 10 uM Pr-MPO for 4 hr, 8 hr and 18 h.

[4] = test system: AIF (apoptosis inducing factor); settings: SHEP-1 cells, 5 μM and 10 μM, 24 hr
Method: Different concentrations (5 μM and 10 μM) of C19H24N3O5S5Pr (indicated as “Pr-MPO”) were administered into SHEP-1 cancer cells. The detection of AIF in the cytosol and nucleus fractions was determined by Western Blot analysis at 18 hr and 24 hr of treatment with C19H24N3O5S5Pr.

LC3 II = LC3 II formation by Western blot; assay type: cell-based; settings: SHEP-1 and SHSY5Y cells, 5 μM and 10 μM, 4 hr, 8 hr and 18 hr
[5] = test system: SHEP-1 and MDA-MB-231 cancer cells; assay: Morphological changes of cancer cells; assay type: cell-based; settings: SHEP-1 5 μM, MDA-MB-231 10 μM, compound alone
[6] = test system: HCT-116 colorectal tumor cells
Method: HCT-116 colorectal tumor cells were grafted subcutaneously onto nude mice. Tumor-bearing mice were then treated with solvent control (water) or different concentrations of (100 μg, 200 μg) C19H24N3O5S5Pr on day 1, day 5, day 9, day 12, and day 15. Tumor volumes (mm^3) were measured on day 1, day 5, day 8, day 9, day 12, day 14 and day 16. Tumor volumes in treated mice were compared with those of control mice.

caspases = settings: cancer cells

## CS(C)=O.CS(C)=O.[O-][n+]1ccccc1[S-].[O-][n+]1ccccc1[S-].[O-][n+]1ccccc1[S-].[Pr+3] [C19H24N3O5S5Pr, praseodymium (2-mercaptopyridine N-oxide)(dimethylsulfoxide)]
[1]
  cell viability (MTT): inhibits growth
[2]
  cell viability (MTT), SHEP1 versus SHSY5Y cells: has a greater growth of SHEP1 cells compared to SHSY5Y cells
SHEP1 cells
  cell viability on overexpression of wild type PPARγ: greater decrease in cell viability
T47D breast cancer cells
  cell viability (MTT): remained viable
[3]
  activation of phosphorylation-defective mutant PPARγ versus wild type: significant activation of phosphorylation-defective mutant PPARγ
PPARγ
  PPARγ activation on overexpression of DNA-binding mutant PPARγ: significantly reduced the ability of C19H24N3O5S5Pr to activate PPARγ
PTEN, RhoB, MnSOD
  PTEN, RhoB and MnSOD protein expression in tumors: regulated
PTEN and MnSOD mRNA
  mRNA levels of PTEN and MnSOD: also found at the mRNA level
[4]
  AIF translocation: AIF was translocated into the nucleus
LC3 II
  LC3 II induction: induction of phosphtidylethaonolamine (PE)-conjugated form of microtubule-associated protein 1 light chain 3 (LC3 II)
[5]
  cell morphology: rounded up and also lower in cell density
[6]; 100 μg or 200 μg on day 1, 5, 9, 12 and 15, measured to day 16
  tumor size compared to control mice: did not show a substantial increase in tumor size
[6]; 200 μg
  tumor growth suppression/inhibition versus control mice: at least 3 fold
[6]; dosage increased from 100 μg to 200 μg
  tumor activity suppressed/inhibited, 200 μg versus 100 μg: at least 2 fold
caspases
  caspase activation: does not activate caspases
